Data as given in PMC4696656, “Insights into the Mechanism of Action of Bactericidal Lipophosphonoxins” (PLoS ONE, 2015).
≈ marks a conversion by molar mass, not a printed value. Where “and” joins values, the source holds several entries; their conditions need not be identical. Equal values may be shown once. Read-outs that look alike come from different tables or passages of the source.

Assays:
[1] = system: Clostridium perfringens CCM 4435; assay: microbe, parasite or virus in culture; format: cell-based; settings: CCM4435
[2] = system: Peptostreptococcus anaerobius; assay: MIC against anaerobic bacteria, tube dilution method; format: cell-based; settings: anaerobic conditions, 35°C, 48 h (confirmed 72 h)
[3] = Carboxyfluorescein leakage assay, LUV from bacterial lipids; format: biochemical, Bacillus subtilis; settings: for Hill coefficient n, rapid initial phase of CF release: LPPO 0.8 mg/L, 60 μM phospholipid, 25°C
Procedure: Bacterial phospholipids were extracted with hexane/2-propanol (3:2, v/v) mixture from B. subtilis 168 cell biomass (2000 ml of culture in LB medium) harvested in exponential phase by rapid filtration (Synpor no. 5 filter, Pragochema, Czech Republic). Phospholipids from human erythrocytes (0.5 ml, volunteer blood donor) were extracted with chloroform/2-propanol mixture (7:11, v/v) after hemolysis using distilled water. After evaporation of the solvent in vaccuo at 40°C, the phospholipids were dissolved in chloroform, filtered through glass fiber filters (Whatman) and concentrated under a stream of nitrogen. The lipid samples were stored at -80°C and used for liposome preparation.
Vesicles to be used in the carboxyfluorescein (CF) leakage assay were prepared by mixing the appropriate amount of lipids (1 mg/ml) with chloroform/methanol 2:1 (v/v). The solvent was subsequently evaporated under a nitrogen gas stream obtaining a thin film on the walls of a glass tube. The hydration procedure in a buffer containing 50 mM CF, 5 mM HEPES pH 7.4 lasted for 60 min at 40°C, interrupted by thorough vortexing to form multilamellar vesicles. Large unilamellar vesicles (LUV) were prepared by repeated extrusion of the multilamellar vesicles through 100 nm polycarbonate filters (Avestin) using the LiposoFast Basic apparatus (Avestin, Canada). Vesicles were separated from nonencapsulated dye by gel filtration on Sephadex G-50 using 100 mM NaCl, 0.5 mM Na2EDTA and 5 mM HEPES, pH 7.4 as elution buffer. Fractions with the highest content of the entrapped dye were pooled and dissolved in the same buffer to the final phospholipid concentration of 60 μM.
The release of vesicle contents after adding LPPO solutions was evaluated by the increased fluorescence intensity of CF released into the milieu which we express as the percentage of leakage. […] Maximum release of CF fluorescence (F max) was induced by lysing the vesicles with 0.1% (v/v) Triton X-100. Fluorescence intensity was monitored in time (excitation at 480 nm, emission at 515 nm) at 25°C using FluoroMax-3 (Jobin Yvon, Horriba) spectrofluorometer. The following equation was used to calculate the percent of CF leakage: % CF leakage = [(F–F 0)/(F max−F 0)] × 100, where F is the actual fluorescence intensity and F 0 is the fluorescence intensity before addition of the permeabilizing agent. Using Fityk software the time courses of liposome lysis were fitted by a function: α(1-exp(-t/τ))^n, where t is the time, α is the amplitude of the effect, τ is the time constant of the effect, and n is Hill coefficient (S3 Fig).

[4] = Conductance measurements in planar lipid membranes (BLM); format: biochemical; settings: 5 mg/L, 1M KCl, 10 mM Tris, pH 7.4, 45 mV
Procedure: A Teflon chamber was divided into two compartments connected by a circular aperture of about 0.5 mm in diameter. Black lipid bilayer membranes were formed by painting a solution of 3% (w/v) asolectin (type IIS phosphatidylcholine; Sigma-Aldrich) in n-decane/butanol (9:1, v/v) across the hole. Both compartments contained 2 ml of 10 mM Tris, 1M KCl, pH 7.4. The temperature was kept at 25°C. Tested LPPO was added to the cis side of the membrane at a concentration of 5 mg/L. The membrane current was measured with Ag/AgCl electrodes (Theta) with salt bridges (applied voltage 45 mV, cis positive), amplified by LCA-200-100G or LCA-4k-1G amplifier (Femto) and digitized by KPCI-3108 card (Keithly). The signal was processed by QuB software. The histograms of single pore conductance was calculated from at least 500 events using a 50 pS bin size and fitted with Gaussian functions using Fityk software.

[5] = Critical micellar concentration (conductometry); format: physicochemical; settings: 37°C
Procedure: Critical micellar concentration (CMC) values were measured (using conductometry method, COND 7, XS Laboratories instrument) and calculated according to literature procedure. LogD values were calculated using software package ACD Labs.

[6] = system: Salmonella typhimurium TA98 and TA100; assay: Ames test for genotoxicity (Salmonella/microsome reversion assay, without S9); format: cell-based; settings: at relevant concentrations, without metabolic activation
Procedure: The Salmonella/microsome reversion assay was conducted using the plate incorporation procedure described by Marona and Ames. The Ames test was performed utilizing two different bacterial strains of Salmonella typhimurium: strain TA98 for frame-shift mutations and strain TA100 for base-pair substitution. All strains were maintained and stored according to the standard procedures. All samples were tested without metabolic activation (S9) to detect direct mutagenic compounds. The test was performed with plate incorporation method in duplicate at the increasing concentrations. The plates were incubated at 37°C for 72 h in the dark. The number of his+ revertants was estimated with the counter. Results were expressed as mutation ratios (Φ) calculated as the number of colonies on test plates/number of colonies on solvent control plates. A compound is considered mutagenic when Φ is more than 2 and a dose–response effect is evident.

Streptococcus agalactiae [7] = assay: Induction of resistance by repeated passages, MIC after each step; format: cell-based
[8] = system: Staphylococcus aureus CCM 4223; assay: MIC, standard microdilution method; settings: CCM4223, 24 h
Bacillus subtilis = assay: MIC, standard microdilution method; settings: Bacillus subtilis
Streptococcus agalactiae [9] = assay: MIC, standard microdilution method; settings: 24 h
S. aureus MRSA 4591 = assay: MIC, standard microdilution method; settings: Staphylococcus aureus, 24 h
[10] = system: Staphylococcus haemolyticus 16568; assay: MIC, standard microdilution method; settings: Staphylococcus haemolyticus, 16568, 24 h
[11] = system: Enterococcus faecium VanA 419/ana; assay: MIC, standard microdilution method; settings: VANA419/ANA, 24 h
[12] = system: Staphylococcus epidermidis 8700/B; assay: MIC, standard microdilution method; settings: 24 h
[13] = read-out: MIC after induction step, step 1
[14] = read-out: MIC after induction step, step 2
[15] = read-out: MIC after induction step, step 3
[16] = read-out: MIC after induction step, step 4
[17] = read-out: MIC after induction step, step 5
[18] = read-out: MIC after induction step, step 6
[19] = read-out: MIC after induction step, step 7
[20] = read-out: MIC after induction step, step 8
[21] = read-out: MIC after induction step, step 9
[22] = read-out: MIC after induction step, step 10
[23] = read-out: MIC after induction step, step 11
[24] = read-out: MIC after induction step, step 12
[25] = read-out: MIC after induction step, step 13
[26] = read-out: MIC after induction step, step 14

## CCCCCCCCCCCCCCCCOCCCOP(=O)(CCN1C[C@@H](O)[C@H](O)C1)OC[C@H]1O[C@@H](n2ccc(=O)[nH]c2=O)[C@H](O)[C@@H]1O (some centres unmarked) [DR5047]
[1]
  MIC: 12.5 µg/mL (≈ 17.4 µM)
[2]
  MIC: 1.56 µg/mL (≈ 2.17 µM)
[3]
  Hill coefficient n, rapid initial phase of CF release: 0.7 ± 0.1
[4]
  further conductance states observed: 270 ± 79 pS and 510 ± 77 pS
  most frequent single pore conductance step: 70 ± 37 pS
[5]
  CMC in H2O: 3 mM and 2 g/L
[6]
  genotoxicity (mutagenic potential): Neither of the two compounds was found to be genotoxic
Streptococcus agalactiae [7]; [13]
  MIC: 6.2 µg/mL (≈ 8.61 µM)
Streptococcus agalactiae [7]; [14]
  MIC: 6.2 µg/mL (≈ 8.61 µM)
Streptococcus agalactiae [7]; [15]
  MIC: 6.2 µg/mL (≈ 8.61 µM)
Streptococcus agalactiae [7]; [16]
  MIC: 6.2 µg/mL (≈ 8.61 µM)
Streptococcus agalactiae [7]; [17]
  MIC: 6.2 µg/mL (≈ 8.61 µM)
Streptococcus agalactiae [7]; [18]
  MIC: 6.2 µg/mL (≈ 8.61 µM)
Streptococcus agalactiae [7]; [19]
  MIC: 3.1 µg/mL (≈ 4.31 µM)
Streptococcus agalactiae [7]; [20]
  MIC: 6.2 µg/mL (≈ 8.61 µM)
Streptococcus agalactiae [7]; [21]
  MIC: 6.2 µg/mL (≈ 8.61 µM)
Streptococcus agalactiae [7]; [22]
  MIC: 6.2 µg/mL (≈ 8.61 µM)
Streptococcus agalactiae [7]; [23]
  MIC: 6.2 µg/mL (≈ 8.61 µM)
Streptococcus agalactiae [7]; [24]
  MIC: 6.2 µg/mL (≈ 8.61 µM)
Streptococcus agalactiae [7]; [25]
  MIC: 6.2 µg/mL (≈ 8.61 µM)
Streptococcus agalactiae [7]; [26]
  MIC: 6.2 µg/mL (≈ 8.61 µM)
[8]
  MIC: > 200 µg/mL
Bacillus subtilis; 24 h, 35°C, brain heart infusion broth
  MIC: 6.25 µg/mL (≈ 8.68 µM)
Streptococcus agalactiae [9]
  MIC: 6.25 µg/mL (≈ 8.68 µM)
S. aureus MRSA 4591
  MIC: > 200 µg/mL
[10]
  MIC: > 200 µg/mL
[11]
  MIC: 6.25 µg/mL (≈ 8.68 µM)
[12]
  MIC: 3.12 µg/mL (≈ 4.34 µM)

## CCCCCCCCCCCCCCCCOP(=O)(CCN1C[C@@H](O)[C@H](O)C1)OC[C@H]1O[C@@H](n2ccc(=O)[nH]c2=O)[C@H](O)[C@@H]1O (some centres unmarked) [DR5026]
[1]
  MIC: 12.5 µg/mL (≈ 18.9 µM)
[2]
  MIC: 1.56 µg/mL (≈ 2.36 µM)
[3]
  Hill coefficient n, rapid initial phase of CF release: 0.5 ± 0.2
[3]; S3 Fig data set
  fit Hill coefficient n, initial phase f(x): 0.6
  fit Hill coefficient n, latter phase g(x): 3.1
  fit amplitude α, initial phase f(x) of liposome lysis: 29.7
  fit amplitude α, latter phase g(x) of liposome lysis: 76.4
  fit time constant τ, initial phase f(x): 175.5 s
  fit time constant τ, latter phase g(x): 28.2 s
[4]
  most frequent single pore conductance step: 310 ± 128 pS
[5]
  CMC in H2O: 4 mM and 3 g/L
[6]
  genotoxicity (mutagenic potential): Neither of the two compounds was found to be genotoxic
Streptococcus agalactiae [7]; [13]
  MIC: 3.1 µg/mL (≈ 4.68 µM)
Streptococcus agalactiae [7]; [14]
  MIC: 3.1 µg/mL (≈ 4.68 µM)
Streptococcus agalactiae [7]; [15]
  MIC: 3.1 µg/mL (≈ 4.68 µM)
Streptococcus agalactiae [7]; [16]
  MIC: 3.1 µg/mL (≈ 4.68 µM)
Streptococcus agalactiae [7]; [17]
  MIC: 3.1 µg/mL (≈ 4.68 µM)
Streptococcus agalactiae [7]; [18]
  MIC: 3.1 µg/mL (≈ 4.68 µM)
Streptococcus agalactiae [7]; [19]
  MIC: 6.2 µg/mL (≈ 9.37 µM)
Streptococcus agalactiae [7]; [20]
  MIC: 6.2 µg/mL (≈ 9.37 µM)
Streptococcus agalactiae [7]; [21]
  MIC: 3.1 µg/mL (≈ 4.68 µM)
Streptococcus agalactiae [7]; [22]
  MIC: 3.1 µg/mL (≈ 4.68 µM)
Streptococcus agalactiae [7]; [23]
  MIC: 3.1 µg/mL (≈ 4.68 µM)
Streptococcus agalactiae [7]; [24]
  MIC: 6.2 µg/mL (≈ 9.37 µM)
Streptococcus agalactiae [7]; [25]
  MIC: 6.2 µg/mL (≈ 9.37 µM)
Streptococcus agalactiae [7]; [26]
  MIC: 6.2 µg/mL (≈ 9.37 µM)
[8]
  MIC: 25 µg/mL (≈ 37.8 µM)
Bacillus subtilis; 24 h
  MIC: 3.12 µg/mL (≈ 4.72 µM)
Bacillus subtilis; read-out: MIC against wt B. subtilis, B. subtilis 168, as stated for the resistance selection experiment
  MIC: ~3 µg/mL (≈ 4.53 µM)
Streptococcus agalactiae [9]
  MIC: 3.12 µg/mL (≈ 4.72 µM)
S. aureus MRSA 4591
  MIC: 25 to 50 µg/mL (≈ 37.8 to 75.6 µM)
[10]
  MIC: 50 µg/mL (≈ 75.6 µM)
[11]
  MIC: 3.12 µg/mL (≈ 4.72 µM)
[12]
  MIC: 3.12 µg/mL (≈ 4.72 µM)
